Experimental data reported in patent publication US4419123A, “Herbicidal 4-trifluoromethyl-3'-carbon-substituted-4'-substituted diphenyl ethers” (Rohm and Haas Company, priority 1981, dated 1983).

What was measured:
[1] = Postemergence herbicidal activity (% control) against dicot weeds; settings: post-emergence, 336 h
soybeans = experiment: Crop tolerance (selective herbicidal activity), soybeans; format: in vivo
[2] = Preemergence herbicidal activity (% control) against monocot weeds; format: in vivo; settings: pre-emergence, 336 h, average, read-out: Herbicidal activity (% control), preemergence, monocots
From the text: (§1) barnyardgrass (Echinochloa crusgalli) crabgrass (Digitaria spp.) nutsedge (Cyperus esculentus)
(§2) At 2 and 4 pounds per acre:
(§3) **Bermudagrass (Cynodon dactylon)
(§4) *downy brome (Bromus tectorum) foxtail (Setaria faberii)
(§5) Johnsongrass (Sorghum halepense) […]
(§6) quackgrass (Agropyron repens)
(§7) *ryegrass (Lolium perenne)
(§8) *wild oats (Avena factua)
(§9) *yellow millet (Panicum miliaceum)
(§10) The following test procedure is employed.

rice = experiment: Crop tolerance (selective herbicidal activity), rice; format: in vivo; settings: postemergence applications or applications on transplanted rice
[3] = Postemergence herbicidal activity (% control) against monocot weeds; format: in vivo; settings: post-emergence, 336 h, average, read-out: Herbicidal activity (% control), postemergence, monocots
From the text: as §1, §2, §3, §4, §5, §6, §7, §8, §9, §10

peanuts = experiment: Crop tolerance (selective herbicidal activity), peanuts; format: in vivo; settings: preemergence applications
safflower = experiment: Crop tolerance (selective herbicidal activity), safflower; format: in vivo; settings: preemergence applications
Protocol: as §10
(§11) Following the general test procedure of Example 37, diphenyl ethers are evaluated for significant tolerance (as shown by 50% or less kill of the test crop at levels of application which give more than 50% kill of many or all of the weeds of Example 73) towards some or all of the following common agronomic crops (not all compounds tested against all crops): alfalfa, snapbeans, corn, cotton, cucumbers, peanuts, rape, rice, safflower, soybeans, tomatoes, and wheat.

[4] = Preemergence herbicidal activity (% control) against dicot weeds; settings: pre-emergence, 336 h
cotton = experiment: Crop tolerance (selective herbicidal activity), cotton; format: in vivo
Protocol: as §10, §11

[5] = postemergence or layby applications
[6] = 4 lb./A., about two weeks after application
[7] = 10 lb./A., about two weeks after application

CCOc1cc(Oc2ccc(C(F)(F)F)cc2Cl)ccc1[N+](=O)[O-] [Example 3, 2-Chloro-α,α,α-trifluoro-p-tolyl-3-ethoxy-4-nitrophenyl ether]
pest or weed control at 560.425 g/ha ([1]; read-out: Herbicidal activity (% control), postemergence, dicots): 97%
activity at 4483.4 g/ha ([1]; read-out: Herbicidal activity (% control), postemergence, dicots, 4 lb./A., average, about two weeks after application): 100%
activity at 11208.5 g/ha ([1]; read-out: Herbicidal activity (% control), postemergence, dicots, 10 lb./A., average, about two weeks after application): 100%
Tolerance to soybeans (soybeans; [5]): Tolerance (significant tolerance (as shown by 50% or less kill of the test crop at levels of application which give more than 50% kill of many or all of the weeds of Example 73))
Tolerance to soybeans (soybeans; preemergence applications): Tolerance (significant tolerance (as shown by 50% or less kill of the test crop at levels of application which give more than 50% kill of many or all of the weeds of Example 73))
pest or weed control at 280.212 g/ha ([2]; 1/4 lb./A.): 84%
activity at 4483.4 g/ha [2, 6]: 89%
activity at 11208.5 g/ha [2, 7]: 99%
Tolerance to rice (rice): Tolerance (significant tolerance (as shown by 50% or less kill of the test crop at levels of application which give more than 50% kill of many or all of the weeds of Example 73))
pest or weed control at 560.425 g/ha ([3]; 1/2 lb./A. (footnote +)): 96%
activity at 4483.4 g/ha [3, 6]: 99%
activity at 11208.5 g/ha [3, 7]: 100%
Tolerance to peanuts (peanuts): Tolerance (significant tolerance (as shown by 50% or less kill of the test crop at levels of application which give more than 50% kill of many or all of the weeds of Example 73))
Tolerance to safflower (safflower): Tolerance (significant tolerance (as shown by 50% or less kill of the test crop at levels of application which give more than 50% kill of many or all of the weeds of Example 73))
pest or weed control at 280.212 g/ha ([4]; read-out: Herbicidal activity (% control), preemergence, dicots): 66%
activity at 4483.4 g/ha ([4]; read-out: Herbicidal activity (% control), preemergence, dicots, 4 lb./A., average, about two weeks after application): 99%
activity at 11208.5 g/ha ([4]; read-out: Herbicidal activity (% control), preemergence, dicots, 10 lb./A., average, about two weeks after application): 100%
Tolerance to cotton (cotton; [5]): Tolerance (significant tolerance (as shown by 50% or less kill of the test crop at levels of application which give more than 50% kill of many or all of the weeds of Example 73))
Tolerance to cotton (cotton; preemergence applications): Tolerance (significant tolerance (as shown by 50% or less kill of the test crop at levels of application which give more than 50% kill of many or all of the weeds of Example 73))
